Here are results for 18 compounds from US20240279240A1, “HETEROCYCLIC DERIVATIVES AS JANUS KINASE INHIBITORS” (CHIESI FARMACEUTICI S.P.A., priority 2021, published 2024).

One test concerns the target T1, JAK 3 (Homo sapiens, UniProt P52333).
T1 sequence (P52333 1-1124): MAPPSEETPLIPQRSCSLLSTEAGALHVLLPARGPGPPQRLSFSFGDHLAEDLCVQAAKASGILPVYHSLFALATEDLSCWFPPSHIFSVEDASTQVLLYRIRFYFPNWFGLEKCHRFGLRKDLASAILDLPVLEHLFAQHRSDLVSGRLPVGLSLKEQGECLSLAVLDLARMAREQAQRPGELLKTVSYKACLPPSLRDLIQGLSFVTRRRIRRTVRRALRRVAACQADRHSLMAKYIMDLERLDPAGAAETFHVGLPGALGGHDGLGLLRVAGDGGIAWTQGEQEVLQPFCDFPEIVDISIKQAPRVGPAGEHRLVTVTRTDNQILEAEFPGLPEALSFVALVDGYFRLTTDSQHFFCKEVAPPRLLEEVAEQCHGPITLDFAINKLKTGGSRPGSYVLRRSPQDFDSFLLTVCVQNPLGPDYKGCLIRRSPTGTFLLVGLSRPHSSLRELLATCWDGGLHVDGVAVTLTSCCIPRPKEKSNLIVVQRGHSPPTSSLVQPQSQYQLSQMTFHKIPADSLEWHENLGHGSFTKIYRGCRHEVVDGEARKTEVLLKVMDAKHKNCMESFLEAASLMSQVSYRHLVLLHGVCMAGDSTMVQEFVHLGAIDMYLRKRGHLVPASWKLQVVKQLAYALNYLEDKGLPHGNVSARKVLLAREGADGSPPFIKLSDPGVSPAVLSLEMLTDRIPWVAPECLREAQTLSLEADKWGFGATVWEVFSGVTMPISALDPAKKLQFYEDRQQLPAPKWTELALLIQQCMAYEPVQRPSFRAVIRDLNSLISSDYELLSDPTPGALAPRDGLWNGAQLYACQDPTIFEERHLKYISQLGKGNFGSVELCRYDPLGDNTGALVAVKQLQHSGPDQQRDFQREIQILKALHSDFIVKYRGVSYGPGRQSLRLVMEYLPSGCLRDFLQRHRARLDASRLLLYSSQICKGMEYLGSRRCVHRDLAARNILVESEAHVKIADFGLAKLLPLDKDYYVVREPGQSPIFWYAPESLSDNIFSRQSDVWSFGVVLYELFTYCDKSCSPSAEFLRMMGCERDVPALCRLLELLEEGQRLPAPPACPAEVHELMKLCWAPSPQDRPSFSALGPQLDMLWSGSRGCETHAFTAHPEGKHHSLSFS
Nature of the test: Biochemical potency on JAK3, TR-FRET LANCE Ultra kinase assay (examples 1-99). As to conditions: ATP at Km (0.2 μM), read-out: JAK3 inhibitory activity (pIC50 class) (converted). Summed up: (§1)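 LANCE Ultra TR-FRET with ULight-JAK-1 (Tyr1023) peptide at 30/50/20/10 nM and ATP (~Km) at 20/0.7/0.2/12 μM for JAK1/JAK2/JAK3/TYK2; enzymes 0.15/0.083/0.025/0.144 ng/μL. 1.5 h at r.t., EDTA stop, Eu-anti-phosphotyrosine read. 11-point 5-fold series from 20 μM; IC50 by variable-slope fit.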
In general terms: Time-resolved FRET reads energy transfer from a long-lived donor to a nearby acceptor.

The next test addresses TYK2 (Homo sapiens, UniProt P29597). Nature of the test: Biochemical potency on Tyk2, TR-FRET LANCE Ultra kinase assay (examples 1-99). Conditions: ATP at Km (12 μM), read-out: Tyk2 inhibitory activity (pIC50 class) (converted). Summed up: as §1
The target in a further test is JAK 1 (Homo sapiens, UniProt P23458). Nature of the test: Biochemical potency on JAK1, TR-FRET LANCE Ultra kinase assay (examples 1-99). As to conditions: ATP at Km (20 μM), read-out: JAK1 inhibitory activity (pIC50 class) (converted). Put shortly:
as §1

The next test addresses JAK 2 (Homo sapiens, UniProt O60674). In words: Biochemical potency on JAK2, TR-FRET LANCE Ultra kinase assay (examples 1-99). As to conditions: ATP at Km (0.7 μM), read-out: JAK2 inhibitory activity (pIC50 class) (converted). Put shortly: as §1

JAK 2, sequence (O60674 whole entry): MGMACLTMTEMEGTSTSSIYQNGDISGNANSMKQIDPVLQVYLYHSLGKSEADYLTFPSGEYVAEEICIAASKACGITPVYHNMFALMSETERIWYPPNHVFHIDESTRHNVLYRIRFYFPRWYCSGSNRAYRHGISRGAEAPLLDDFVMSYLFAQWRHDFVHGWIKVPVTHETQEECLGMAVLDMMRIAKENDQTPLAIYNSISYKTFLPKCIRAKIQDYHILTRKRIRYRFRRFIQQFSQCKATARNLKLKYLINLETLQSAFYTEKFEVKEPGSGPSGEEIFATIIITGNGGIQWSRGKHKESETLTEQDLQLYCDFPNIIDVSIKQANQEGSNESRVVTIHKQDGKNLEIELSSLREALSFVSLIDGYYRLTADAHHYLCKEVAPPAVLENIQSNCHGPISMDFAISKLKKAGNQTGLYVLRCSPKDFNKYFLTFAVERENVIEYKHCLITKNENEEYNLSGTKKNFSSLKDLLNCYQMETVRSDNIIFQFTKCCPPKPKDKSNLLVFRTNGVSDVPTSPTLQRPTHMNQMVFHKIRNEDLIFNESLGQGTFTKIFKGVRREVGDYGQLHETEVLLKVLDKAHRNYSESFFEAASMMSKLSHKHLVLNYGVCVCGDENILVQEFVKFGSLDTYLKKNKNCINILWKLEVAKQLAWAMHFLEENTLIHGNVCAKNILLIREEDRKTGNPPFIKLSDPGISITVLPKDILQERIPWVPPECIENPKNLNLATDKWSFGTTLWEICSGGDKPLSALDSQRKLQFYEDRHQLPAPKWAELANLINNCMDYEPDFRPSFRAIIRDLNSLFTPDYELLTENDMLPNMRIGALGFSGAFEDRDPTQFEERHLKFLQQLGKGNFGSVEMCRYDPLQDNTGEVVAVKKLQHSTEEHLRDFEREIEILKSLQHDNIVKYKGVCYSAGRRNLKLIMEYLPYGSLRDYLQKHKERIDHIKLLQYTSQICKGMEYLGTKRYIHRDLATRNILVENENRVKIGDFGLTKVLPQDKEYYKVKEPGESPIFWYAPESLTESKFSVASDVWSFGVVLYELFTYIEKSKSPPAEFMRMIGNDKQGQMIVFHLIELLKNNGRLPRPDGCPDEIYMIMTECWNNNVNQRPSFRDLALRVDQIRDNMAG
TYK2, sequence (P29597 whole entry): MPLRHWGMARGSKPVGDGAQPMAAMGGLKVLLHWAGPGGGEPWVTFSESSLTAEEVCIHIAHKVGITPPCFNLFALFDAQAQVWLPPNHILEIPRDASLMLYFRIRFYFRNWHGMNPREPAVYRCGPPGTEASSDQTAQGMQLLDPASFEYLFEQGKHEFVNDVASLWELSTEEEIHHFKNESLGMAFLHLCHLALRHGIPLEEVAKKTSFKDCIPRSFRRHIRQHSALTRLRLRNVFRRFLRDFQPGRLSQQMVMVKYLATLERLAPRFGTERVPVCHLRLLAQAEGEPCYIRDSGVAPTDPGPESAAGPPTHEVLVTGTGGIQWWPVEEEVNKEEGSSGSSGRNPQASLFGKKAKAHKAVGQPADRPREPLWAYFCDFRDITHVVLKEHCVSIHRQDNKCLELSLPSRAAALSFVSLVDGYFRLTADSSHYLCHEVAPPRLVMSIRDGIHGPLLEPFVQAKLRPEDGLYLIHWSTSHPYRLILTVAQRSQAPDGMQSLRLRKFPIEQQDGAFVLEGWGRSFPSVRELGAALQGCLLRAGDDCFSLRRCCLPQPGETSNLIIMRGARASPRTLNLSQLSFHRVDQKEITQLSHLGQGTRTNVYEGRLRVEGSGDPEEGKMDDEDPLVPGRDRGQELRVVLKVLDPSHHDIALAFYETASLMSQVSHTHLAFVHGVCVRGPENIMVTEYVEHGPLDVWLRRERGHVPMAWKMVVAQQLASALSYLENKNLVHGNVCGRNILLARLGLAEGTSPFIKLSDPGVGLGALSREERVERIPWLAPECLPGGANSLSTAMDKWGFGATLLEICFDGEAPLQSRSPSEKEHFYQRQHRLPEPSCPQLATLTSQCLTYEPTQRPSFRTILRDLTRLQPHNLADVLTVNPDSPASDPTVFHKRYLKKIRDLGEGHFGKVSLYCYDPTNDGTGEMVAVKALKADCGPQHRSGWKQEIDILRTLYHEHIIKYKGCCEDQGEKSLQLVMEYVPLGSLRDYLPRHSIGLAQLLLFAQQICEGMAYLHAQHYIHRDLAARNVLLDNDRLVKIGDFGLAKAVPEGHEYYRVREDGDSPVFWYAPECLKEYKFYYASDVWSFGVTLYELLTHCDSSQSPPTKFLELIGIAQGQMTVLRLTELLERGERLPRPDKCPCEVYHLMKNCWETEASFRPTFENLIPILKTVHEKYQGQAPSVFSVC
JAK 1, sequence (P23458 whole entry): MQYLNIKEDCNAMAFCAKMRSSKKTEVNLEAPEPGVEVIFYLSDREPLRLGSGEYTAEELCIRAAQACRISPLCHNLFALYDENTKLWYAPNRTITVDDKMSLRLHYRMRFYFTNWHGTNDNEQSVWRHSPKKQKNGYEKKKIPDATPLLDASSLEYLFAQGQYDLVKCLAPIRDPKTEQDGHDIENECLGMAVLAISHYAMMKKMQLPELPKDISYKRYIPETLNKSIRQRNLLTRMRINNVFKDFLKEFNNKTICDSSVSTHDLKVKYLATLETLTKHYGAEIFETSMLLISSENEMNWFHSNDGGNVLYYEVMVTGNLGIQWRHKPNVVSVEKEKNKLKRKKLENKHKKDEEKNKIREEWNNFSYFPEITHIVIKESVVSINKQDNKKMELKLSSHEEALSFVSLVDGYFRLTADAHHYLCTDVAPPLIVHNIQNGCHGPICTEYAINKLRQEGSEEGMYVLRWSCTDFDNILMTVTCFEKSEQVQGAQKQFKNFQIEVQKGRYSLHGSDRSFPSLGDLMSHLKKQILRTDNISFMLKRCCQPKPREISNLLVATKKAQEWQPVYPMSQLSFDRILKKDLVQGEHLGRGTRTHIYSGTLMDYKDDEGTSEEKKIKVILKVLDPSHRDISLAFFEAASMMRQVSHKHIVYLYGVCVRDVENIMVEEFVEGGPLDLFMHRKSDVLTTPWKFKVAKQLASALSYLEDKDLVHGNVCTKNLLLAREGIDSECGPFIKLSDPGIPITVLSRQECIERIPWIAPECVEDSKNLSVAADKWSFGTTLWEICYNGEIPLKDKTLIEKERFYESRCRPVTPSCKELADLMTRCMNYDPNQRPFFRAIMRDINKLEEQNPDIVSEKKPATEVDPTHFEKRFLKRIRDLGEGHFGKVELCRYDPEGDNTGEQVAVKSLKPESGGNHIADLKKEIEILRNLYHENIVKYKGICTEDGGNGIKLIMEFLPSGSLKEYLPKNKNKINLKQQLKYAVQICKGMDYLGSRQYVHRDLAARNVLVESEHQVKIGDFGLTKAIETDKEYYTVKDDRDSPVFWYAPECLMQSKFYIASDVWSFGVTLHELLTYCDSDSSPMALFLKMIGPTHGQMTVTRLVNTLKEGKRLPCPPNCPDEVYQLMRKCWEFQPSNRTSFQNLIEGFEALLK

As to `CNC(=O)CNc1nc(-c2cnn3cccnc23)cc2c1cnn2-c1cc(Cl)ccc1OC` [Example 54, 2-((1-(5-chloro-2-methoxyphenyl)-6-(pyrazolo[1,5-a]pyrimidin-3-yl)-1H-pyrazolo[4,3-c]pyridin-4-yl)amino)-N-methylacetamide], the IC50 on JAK 3 is 5.01 to 50.1 nM; on TYK2, over 50.1 nM; on JAK 1, 5.01 to 50.1 nM; at JAK 2 it was 5.01 to 50.1 nM.

As to `COc1ccc(Cl)cc1-n1ncc2c(NC(C)=O)nc(-c3cnn4cccnc34)cc21` [Example 55, N-(1-(5-chloro-2-methoxyphenyl)-6-(pyrazolo[1,5-a]pyrimidin-3-yl)-1H-pyrazolo[4,3-c]pyridin-4-yl)acetamide], the IC50 at JAK 3 is over 50.1 nM; on TYK2, over 50.1 nM; at JAK 1, 5.01 to 50.1 nM; on JAK 2, 5.01 to 50.1 nM.

Turning to `COc1ccc(Cl)cc1-n1ncc2c(N)nc(-c3cnn4cccnc34)cc21` [Example 56, 1-(5-chloro-2-methoxyphenyl)-6-(pyrazolo[1,5-a]pyrimidin-3-yl)-1H-pyrazolo[4,3-c]pyridin-4-amine], the IC50 on JAK 3, on TYK2, on JAK 1 and on JAK 2 was 5.01 to 50.1 nM each time.

For `COc1ccc(Cl)cc1-n1ncc2c(O)nc(-c3cnn4cccnc34)cc21` [Example 57, 1-(5-chloro-2-methoxyphenyl)-6-(pyrazolo[1,5-a]pyrimidin-3-yl)-1H-pyrazolo[4,3-c]pyridin-4-ol], the IC50 at JAK 3 is 5.01 to 50.1 nM; on TYK2, 5.01 to 50.1 nM; at JAK 1, 5.01 to 50.1 nM; at JAK 2, at most 5.01 nM.

With `COc1cc(O)c(F)cc1-n1nc(C)c2cnc(-c3cnn4cccnc34)cc21` [Example 58, 2-fluoro-5-methoxy-4-(3-methyl-6-(pyrazolo[1,5-a]pyrimidin-3-yl)-1H-pyrazolo[4,3-c]pyridin-1-yl)phenol], the IC50 is at most 5.01 nM at JAK 3, 5.01 to 50.1 nM on TYK2, at most 5.01 nM at JAK 1 and at most 5.01 nM at JAK 2.

As to `COc1cc(O)c(Cl)cc1-n1nc(C)c2cnc(-c3cnn4cccnc34)cc21` [Example 59, 2-chloro-5-methoxy-4-(3-methyl-6-(pyrazolo[1,5-a]pyrimidin-3-yl)-1H-pyrazolo[4,3-c]pyridin-1-yl)phenol], the IC50 on JAK 3 is at most 5.01 nM; on TYK2 it was 5.01 to 50.1 nM; on JAK 1, at most 5.01 nM; at JAK 2, at most 5.01 nM.

`COc1cc(O)c(C)cc1-n1nc(C)c2cnc(-c3cnn4cccnc34)cc21` [Example 60, 5-methoxy-2-methyl-4-(3-methyl-6-(pyrazolo[1,5-a]pyrimidin-3-yl)-1H-pyrazolo[4,3-c]pyridin-1-yl)phenol]: the IC50 on JAK 3 is at most 5.01 nM; at TYK2 it was 5.01 to 50.1 nM; at JAK 1, at most 5.01 nM; on JAK 2, at most 5.01 nM.

With `COc1cnc(Cl)cc1-n1nc(C)c2cnc(-c3cnn4cccnc34)cc21` [Example 61, 1-(2-chloro-5-methoxypyridin-4-yl)-3-methyl-6-(pyrazolo[1,5-a]pyrimidin-3-yl)-1H-pyrazolo[4,3-c]pyridine], the IC50 on JAK 3 was 5.01 to 50.1 nM; on TYK2, over 50.1 nM; at JAK 1, 5.01 to 50.1 nM; at JAK 2, 5.01 to 50.1 nM.

For `Cc1nn(-c2cc(Cl)ccc2CO)c2cc(-c3cnn4cccnc34)ncc12` [Example 62, (4-chloro-2-(3-methyl-6-(pyrazolo[1,5-a]pyrimidin-3-yl)-1H-pyrazolo[4,3-c]pyridin-1-yl)phenyl)methanol], the IC50 is 5.01 to 50.1 nM on JAK 3, over 50.1 nM on TYK2, over 50.1 nM on JAK 1 and 5.01 to 50.1 nM at JAK 2.

Consider `Cc1nn(-c2cc(Br)ccc2OC(F)F)c2cc(-c3cnn4cccnc34)ncc12` [Example 63, 1-(5-bromo-2-(difluoromethoxy)phenyl)-3-methyl-6-(pyrazolo[1,5-a]pyrimidin-3-yl)-1H-pyrazolo[4,3-c]pyridine], for which the IC50 at JAK 3 is at most 5.01 nM; at TYK2 it was 5.01 to 50.1 nM; on JAK 1, at most 5.01 nM; on JAK 2, at most 5.01 nM.

Take `Cc1nn(-c2cc(C#N)ccc2OC(F)F)c2cc(-c3cnn4cccnc34)ncc12` [Example 64, 4-(difluoromethoxy)-3-(3-methyl-6-(pyrazolo[1,5-a]pyrimidin-3-yl)-1H-pyrazolo[4,3-c]pyridin-1-yl)benzonitrile]: the IC50 at JAK 3 was at most 5.01 nM; on TYK2 it was 5.01 to 50.1 nM; on JAK 1, 5.01 to 50.1 nM; at JAK 2, at most 5.01 nM.

`Cc1ccc(OC(F)F)c(-n2nc(C)c3cnc(-c4cnn5cccnc45)cc32)c1` [Example 65, 1-(2-(difluoromethoxy)-5-methylphenyl)-3-methyl-6-(pyrazolo[1,5-a]pyrimidin-3-yl)-1H-pyrazolo[4,3-c]pyridine]: the IC50 on JAK 3 was at most 5.01 nM; on TYK2, 5.01 to 50.1 nM; at JAK 1, 5.01 to 50.1 nM; at JAK 2, 5.01 to 50.1 nM.

As for `Cc1nn(-c2cc(C(=O)Nc3nccs3)ccc2OC(F)F)c2cc(-c3cnn4cccnc34)ncc12` [Example 66, 4-(difluoromethoxy)-3-(3-methyl-6-(pyrazolo[1,5-a]pyrimidin-3-yl)-1H-pyrazolo[4,3-c]pyridin-1-yl)-N-(thiazol-2-yl)benzamide], the IC50 is at most 5.01 nM on JAK 3, over 50.1 nM at TYK2, 5.01 to 50.1 nM at JAK 1 and 5.01 to 50.1 nM on JAK 2.

For `CNC(=O)CSc1ccc(OC(F)F)c(-n2nc(C)c3cnc(-c4cnn5cccnc45)cc32)c1` [Example 67, 2-((4-(difluoromethoxy)-3-(3-methyl-6-(pyrazolo[1,5-a]pyrimidin-3-yl)-1H-pyrazolo[4,3-c]pyridin-1-yl)phenyl)thio)-N-methylacetamide], the IC50 is 5.01 to 50.1 nM on JAK 3, over 50.1 nM on TYK2, 5.01 to 50.1 nM on JAK 1 and 5.01 to 50.1 nM on JAK 2.

On to `Cc1nn(-c2cc(SCC(N)=O)ccc2OC(F)F)c2cc(-c3cnn4cccnc34)ncc12` [Example 68, 2-((4-(difluoromethoxy)-3-(3-methyl-6-(pyrazolo[1,5-a]pyrimidin-3-yl)-1H-pyrazolo[4,3-c]pyridin-1-yl)phenyl)thio)acetamide], for which the IC50 is at most 5.01 nM at JAK 3, over 50.1 nM at TYK2, 5.01 to 50.1 nM at JAK 1 and at most 5.01 nM at JAK 2.

As for `Cc1nn(-c2cc(SCC(=O)NCCO)ccc2OC(F)F)c2cc(-c3cnn4cccnc34)ncc12` [Example 69, 2-((4-(difluoromethoxy)-3-(3-methyl-6-(pyrazolo[1,5-a]pyrimidin-3-yl)-1H-pyrazolo[4,3-c]pyridin-1-yl)phenyl)thio)-N-(2-hydroxyethyl)acetamide], the IC50 on JAK 3 was 5.01 to 50.1 nM; at TYK2 it was over 50.1 nM; at JAK 1 it was 5.01 to 50.1 nM; on JAK 2 it was 5.01 to 50.1 nM.

Take `Cc1nn(-c2cc(S(=O)(=O)CC(N)=O)ccc2OC(F)F)c2cc(-c3cnn4cccnc34)ncc12` [Example 70, 2-((4-(difluoromethoxy)-3-(3-methyl-6-(pyrazolo[1,5-a]pyrimidin-3-yl)-1H-pyrazolo[4,3-c]pyridin-1-yl)phenyl)sulfonyl)acetamide]: the IC50 is at most 5.01 nM on JAK 3, over 50.1 nM on TYK2, 5.01 to 50.1 nM on JAK 1 and at most 5.01 nM at JAK 2.

Consider `Cc1nn(-c2cc(SC3CC3)ccc2OC(F)F)c2cc(-c3cnn4cccnc34)ncc12` [Example 71, 1-(5-(cyclopropylthio)-2-(difluoromethoxy)phenyl)-3-methyl-6-(pyrazolo[1,5-a]pyrimidin-3-yl)-1H-pyrazolo[4,3-c]pyridine], for which the IC50 on JAK 3 is 5.01 to 50.1 nM; on TYK2 it was over 50.1 nM; on JAK 1, 5.01 to 50.1 nM; on JAK 2 it was 5.01 to 50.1 nM.
